Patent US20230159916A1, “METHODS OF FUNCTIONAL LINKAGE OF CHROMOSOMAL POSITIONS” (ARPEGGIO BIOSCIENCES, INC., priority 2020, published 2023)

How the values were obtained:
HMOX1 [1] = test: RT-qPCR of HMOX1 expression in A673 cells; assay type: cell-based; details: A673, 1 μM, four hours
Protocol: (§1) To confirm HMOX1 induction by the GPX4 inhibitors, an RT-qPCR assay was performed using three ferroptosis sensitive cancer cell lines: the fibrosarcoma cell line HT-1080, a Ewing's sarcoma cell line A673, and a renal clear cell carcinoma cell line 786-O. Briefly, cells were exposed to 1 μM ML162 or 1 μM RSL3 for 4 hours, RNA was isolated and an RT-qPCR assay was performed.
(§2) Briefly, HT-1080, A673, and 786-O cells were exposed to 1 μM ML162 or 1 μM RLS3 with or without 1 μM ferrostatin-1 for four hours, RNA was isolated and an RT-qPCR assay was performed to quantify HMOX1 expression. DMSO was used as a control exposure.

HMOX1 [2] = test: nascent RNA sequencing of IMR90 cells exposed to GPX4 inhibitors; assay type: cell-based; details: IMR90, 1 μM, 1 hour, Pval 10^−3
Protocol: (§3) To assess the transcriptional response of a cell to inhibition of GPX4, we exposed two cell lines to two different chemical inhibitors of GPX4 (ML162 and RSL3; available from Sigma Aldrich and Apex Bio respectively) and examined the transcriptional responses using a nascent RNA sequencing protocol. Briefly, a fibrosarcoma cell line HT-1080 and a lung fibroblast cell line IMR90 were exposed to 1 μM ML162 or 1 μM RSL3 for 1 hour and the nascent RNA sequencing protocol was performed.

HMOX1 [3] = test: RT-qPCR of HMOX1 expression in HT-1080 cells; assay type: cell-based; details: for expression of HMOX1 relative to ACTB, absence of ferrostatin-1: HT-1080, 1 μM, four hours; for effect of ferrostatin-1 on the substance's induction of HMOX1: HT-1080, sodium arsenite 80 μM, hemin 5 μM, RSL3 1 μM, with or without 1 μM ferrostatin-1, four hours, normalized to DMSO
Protocol: as §1
To further validate induction of HMOX1 mRNA expression by GPX4 inhibition, RT-qPCR was performed using varying doses of the RSL3 inhibitor. Briefly, HT-1080 cells were exposed to 5 μM RSL3, 1 μM RSL3, and 0.2 μM RSL3 for four hours, RNA was isolated and an RT-qPCR assay was performed to quantify HMOX1 expression. DMSO was used as a control exposure.
as §2
Sodium arsenite and hemin are known to be inducers of general oxidative stress in cells. Briefly, HT-1080 cells were exposed to sodium arsenite (80 μM), hemin (5 μM), ML162 (1 μM), or RSL3 (1 μM) with or without 1 μM ferrostatin-1 for four hours, RNA was isolated and an RT-qPCR assay was performed to quantify HMOX1 expression. DMSO was used as a control exposure.

HMOX1 [4] = test: RT-qPCR of HMOX1 expression in 786-O cells; assay type: cell-based; details: 1 μM, four hours
Protocol: as §1, §2

HMOX1 [5] = test: nascent RNA sequencing of HT-1080 cells exposed to GPX4 inhibitors; assay type: cell-based; details: HT-1080, 1 μM, 1 hour, Pval<10^−2
Protocol: as §3

[6] = tested on: HT-1080, A673, and 786-O cells lines; details: ferrostatin-1 added to the culture media; HT-1080, A673, 786-O; cited from earlier work
HMOX1 [7] = test: RT-qPCR of HMOX1, ferrostatin-1 rescue of GPX4 inhibitor-mediated induction in HT-1080, A673 and 786-O cells; assay type: cell-based; details: HT-1080, A673, 786-O; 1 μM ferrostatin-1 with 1 μM ML162 or RSL3, four hours
Protocol: as §2

Compound	expression of HMOX1 relative to ACTB, absence of ferrostatin-1 (HMOX1 [1])	differential expression of HMOX1 (nascent RNA sequencing) (HMOX1 [2])	expression of HMOX1 relative to ACTB, absence of ferrostatin-1 (HMOX1 [3])	expression of HMOX1 relative to ACTB, absence of ferrostatin-1 (HMOX1 [4])	differential expression of HMOX1 (nascent RNA sequencing) (HMOX1 [5])	effect of ferrostatin-1 on the substance's induction of HMOX1 (HMOX1 [3])	other results
COc1ccc(N(C(=O)CCl)C(C(=O)NCCc2ccccc2)c2cccs2)cc1Cl (centres unmarked) [ML162]	HMOX1 expression was observed in all three cell lines	strongly differentially expressed	HMOX1 expression was observed in all three cell lines	HMOX1 expression was observed in all three cell lines	strongly differentially expressed		expression of HMOX1 relative to ACTB, presence of ferrostatin-1 (HMOX1 [3]; HT-1080, 1 μM inhibitor with 1 μM ferrostatin-1, four hours): induced HMOX1 even in the presence of ferrostatin-1
CCOC(=O)c1ccc(NC2CCCCC2)c(N)c1 [ferrostatin-1]							cellular viability of cells treated with small molecules that induce lipid peroxidation (e.g., GPX4 inhibitors) [6]: rescues cellular viability; effect of ferrostatin-1 on induction of HMOX1 by RSL3 and ML162 (HMOX1 [7]): sufficient to prevent induction of HMOX1 in most conditions
COC(=O)c1ccc([C@@H]2c3[nH]c4ccccc4c3C[C@@H](C(=O)OC)N2C(=O)CCl)cc1 [RSL3]	HMOX1 expression was observed in all three cell lines	strongly differentially expressed	HMOX1 expression was observed in all three cell lines	HMOX1 expression was observed in all three cell lines	strongly differentially expressed	dependent on lipid peroxidation	dose dependence of HMOX1 expression relative to ACTB (HMOX1 [3]; HT-1080, 5 μM, 1 μM and 0.2 μM RSL3, four hours): proportional to the dose
O=[As]O [sodium arsenite]						not affected by the presence of ferrostatin-1	
hemin						not affected by the presence of ferrostatin-1	
